Entries after “also recorded” stand apart in the source; their conditions may differ.
Assays:
[1] = system: Rop7-II CD8 T cells; assay: Cytokine secretion with peptide-loaded BMDC; type: cell-based, mouse; conditions: 1 or 0.01 µg/ml, supernatant after 3 days, ELISA or multiplex, n = 3 technical replicates
Text: (§1) Figure 4. Rop7 CD8 T cells proliferation and cytokine secretion upon Rop7 peptide variant stimulation. Sorted CD8^+ tetramer^+ T cells from pooled lymph nodes and spleen of Rop7-I, -II or -III heterozygous mice were labelled with CFSE and stimulated with BMDC loaded with Rop7 peptide variants at indicated concentrations. (a) Histograms show CFSE dilution on sorted CD8 T cells from Rop7-I, -II or -III mice stimulated with IPAAAGRFF peptide-loaded BMDC after 3 days of stimulation. (b) IL-2, TNFα and IFNγ concentration measured in culture supernatant after 3 days of stimulation. Mean of three technical replicates (T-cell stimulation). Error bars: standard deviation (n = 3). Representative of three independent experiments. (c) Bar histograms show the percentage of living cells (Zombie Aqua negative) after 3 days of stimulation with IPAAAGRFF-loaded BMDC. Mean of three technical replicates (T-cell stimulation). Error bars: standard deviation (n = 3). Representative of three independent experiments. (d) Histograms show CFSE dilution on sorted CD8 T cells from Rop7-I or -II heterozygous mice stimulated with IPANAGRFF peptide-loaded BMDC after 3 days of stimulation. (e) IL-2, TNFα and IFNγ concentration measured in culture supernatant after 3 days of stimulation. Mean of three technical replicates (T-cell stimulation). Error bars: standard deviation (n = 3). Representative of three independent experiments. (f) Bar histograms show the percentage of living cells (Zombie Aqua negative) after 3 days of stimulation with IPANAGRFF-loaded BMDC. *p < 0.05, **p < 0.01, ***p < 0.001 (Student's t-test).
(§2) Cytokine concentrations were measured by ELISA according to the manufacturer's instructions or by multiplex assay (Eve Technologies, Calgary, Alberta, Canada).

[2] = system: Rop7-I CD8 T cells; assay: T-cell proliferation (CFSE dilution) with peptide-loaded BMDC; type: cell-based, mouse; conditions: 1 or 0.01 µg/ml, 3 days
Text: as §1
(§3) Anti-CD3/28: plate-bound anti-CD3 (clone 17A2) and anti-CD28 (clone 37.51) at indicated concentrations in flat bottom 96-well plates in the presence of 10 ng ml^–1 recombinant mouse IL-2 when specified. BMDC: dendritic cells differentiated from bone marrow progenitors for 5–7 days in GM-CSF and IL-4 containing medium loaded with Rop7 peptide (final concentration 1 or 0.01 µg ml^−1). When indicated, 10–20 × 10^6 cells per millilitre were labelled in PBS 2.5 µM CFSE for 2 min at room temperature.

[3] = system: Rop7-II CD8 T cells; assay: as above; type: cell-based, mouse; conditions: 1 or 0.01 µg/ml, 3 days
Text: as §1, §3

[4] = system: CD8 T cells from Rop7-I mice; assay: Peptide-loaded H-2 L^d tetramer staining; type: cell-based, mouse; conditions: caged tetramer approach, H-2 L^d tetramers loaded with peptide, splenocytes, flow cytometry
Method: (§4) Figure 2. Binding of Rop7-I, -II and -III to Rop7 peptide variants. (a) Splenocytes from WT or Rop7-I, -II and -III heterozygous mice were stained for CD8 and with H-2 L^d tetramers loaded with the indicated peptides. Histograms show H-2 L^d-Rop7 variants staining on CD8 T cells from WT or Rop7 mice. (b) TCRs from Rop7-I, -II and -III T cells were recombinantly expressed and refolded. Binding affinities for IPAAAGRFF-, IPAFAGRFF- and IPANAGRFF-loaded H-2 L^d were measured with a BIAcore 3000 and analysed using an equilibrium model. The raw data (black lines), fits (red lines) and calculated dissociation constant are shown in each panel.
(§5) Purified anti-CD3 (clone 17A2) and anti-CD28 (clone 37.51) antibodies, fluorescently labelled Granzyme B (clone 16G6), CD3ɛ (clone 145-2C11), CD4 (clone GK1.5), CD8 (clone 53-6.7), CD45.1 (clone A20) specific antibodies were purchased from eBioscience. Biotinylated anti-CD4 (clone GK1.5), anti-CD19 (clone 1D3), fluorescently labelled CD25 (clone 7D4), CD44 (clone 1M7), CD69 (clone H1.2F3), TNFα (clone MP6-XT22) and actin (clone ab-5) specific antibodies were purchased from BD Biosciences. Fluorescently labelled CD5 (clone 53-7.3), CD28 (clone E18), CD62 L (clone mel-14), Ki-67 (clone 16A8) specific antibodies and Zombie Aqua (cat. no. 423101) were purchased from Biolegend. Fluorescently labelled anti-IFNγclone 9004) was purchased from Sigma. Anti-phospho-tyrosine residue (clone 4G10) was purchased from Millipore. Anti-phopho-ERK (Thr202/Tyr204) (D13.14.4E, cat. no. 4370) and anti-phospho-S6 (Ser235/236) (D57.2.2E, cat. no. 4858) were purchased from Cell Signalling Technology. Horseradish peroxidase-conjugated anti-mouse antibody was purchased from GE Healthcare (cat. no. NXA931). Horseradish peroxidase-conjugated goat anti-rabbit antibody was purchased from Southern Biotech (cat. no. 4041-05). CD8 T cells isolation kit (130-095-236) and anti-biotin beads (130-090-485) were purchased from Miltenyi and used according to the manufacturer's instructions. ELISA kits for the detection of mouse IL-2 (cat. no. 431001), IFNγ (cat. no. 430801) and TNFα (cat. no. 430901) were purchased from BioLegend. ELISA for mouse IgM (cat. no. 88-50470-22) and IgG (cat. no. 88-50400-22) were purchased from Ebioscience. Recombinant mouse GM-CSF (cat. no. 315-03), IL-2 (212-12) and IL-4 (cat. no. 214-14) were purchased from Peprotech. Carboxyfluorescein succinimidyl ester (CFSE) was purchased from Sigma (cat. no. 21888). Protease inhibitor cocktail was purchased from Roche (cat. no. 11836153001). H-2 L^d tetramers were produced and used as described elsewhere or obtained from the NIH tetramer facility. All peptides were produced by the MIT biopolymer facility through standard solid-phase peptide synthesis or purchased from Pepceuticals, UK.

[5] = system: CD8 T cells from Rop7-III mice; assay: Peptide-loaded H-2 L^d tetramer staining; type: cell-based, mouse; conditions: caged tetramer approach, H-2 L^d tetramers loaded with peptide, splenocytes, flow cytometry
Method: as §4, §5

[6] = system: CD8 T cells from Rop7-II mice; assay: Peptide-loaded H-2 L^d tetramer staining; type: cell-based, mouse; conditions: caged tetramer approach, H-2 L^d tetramers loaded with peptide, splenocytes, flow cytometry
Method: as §4, §5

[7] = biological target: Rop7-III TCR; assay: SPR affinity of H-2 L^d-peptide complexes for immobilised recombinant Rop7-III TCR (BIAcore 3000); type: binding, mouse; conditions: peptide loaded in H-2 L^d as analyte, 1 to 200 µM, 25°C, biotinylated TCR on streptavidin CM5 chip, equilibrium model, at least duplicates; read-out: dissociation constant Kd
Method: as §4
For the Rop7-I, -II and -III TCRs, the α and β chains were cloned individually in the bacterial expression vector pET28a. Residues threonine 46 of the α chain's and serine 57 of the β chain's constant regions were mutated to cysteine to enable non-native disulfide bridge formation within the heterodimer complex. A biotinylation sequence was introduced at the C terminus of the β chain. The chains were separately expressed in Escherichia coli. BL21-DE3 (pLysS) and obtained as inclusion bodies and dissolved in 8 M urea, 25 mM MES, 1 mM EDTA, 1 mM DTT at pH 6.0. […] The final response was calculated after subtracting the control cell response. […] Equilibrium Kd values were calculated by nonlinear curve fitting of background-subtracted data using PRISM software.

[8] = system: Rop7-II CD8 T cells; assay: T-cell viability (Zombie Aqua) with peptide-loaded BMDC; type: cell-based, mouse; conditions: 3 days
Text: as §1, with “Representative of three independent experiments. (f) Bar histograms show the percentage of living cells (Zombie Aqua negative) after 3 days of stimulation with IPANAGRFF-loaded BMDC. *p < 0.05, **p < 0.01, ***p < 0.001 (Student's t-test).” left out

[9] = system: Rop7-III CD8 T cells; assay: Cytokine secretion with peptide-loaded BMDC; type: cell-based, mouse; conditions: 1 or 0.01 µg/ml, supernatant after 3 days, ELISA or multiplex, n = 3 technical replicates
Text: as §1, §2

[10] = system: Rop7 CD8 T cells; conditions: BMDC loaded with Rop7 peptide 1 µg/ml, 72 h, then peptide-loaded target splenocytes 16–20 h
Method: A measure of 1–2 × 10^5 sorted CD4^+ or CD8^+ tetramers^+ cells from pooled spleen and lymph nodes of Rop7-I, -II or -III mice were stimulated in complete RPMI in 96-well round bottom plates together with 0.5 × 10^5 Rop7 peptide-loaded BMDC (final concentration 1 µg ml^−1). After 72 h, cells were harvested and incubated with 10^5 total cells of a 1 to 1 mixture of CFSE-labelled, Rop7 peptide-loaded CD45.1 BALB/c splenocytes (final concentration 1 µg ml^−1) and control, CFSE-labelled, DMSO-treated CD45.2 BALB/c splenocytes in 96-well round bottom plates. After 16–20 h the ratio of living (propidium iodide negative) CD45.1 versus CD45.2 cells was determined by flow cytometry.

[11] = system: Rop7-III CD8 T cells; assay: T-cell proliferation (CFSE dilution) with peptide-loaded BMDC; type: cell-based, mouse; conditions: 1 or 0.01 µg/ml, 3 days
Text: as §1, §3

Row | Sequence | IL-2, TNFα and IFNγ production [1] | proliferation [2] | proliferation [3] | tetramer binding [4] | tetramer binding [5] | tetramer binding [6] | Kd [7] [µM] | cell death / living cells [8] | IL-2, TNFα and IFNγ production [9] | cytotoxicity [10] | proliferation [11]
1 | IPANAGRFF | produced significantly fewer cytokines; also recorded: equally poor ability to secrete cytokines | able to proliferate upon stimulation | able to proliferate upon stimulation | Rop7-I and -II, but not Rop7-III T cells bound | not Rop7-III T cells bound | Rop7-I and -II, but not Rop7-III T cells bound | > 200 | more prone to cell death at both peptide concentrations; also recorded: enhanced cell death compared with Rop7-I CD8 T cells | – | – | –
2 | IPAFAGRFF | – | – | – | only Rop7-II T cells bound | only Rop7-II T cells bound | only Rop7-II T cells bound | > 200 | – | – | – | –
3 | IPAAAGRFF [peptide … derived from the Rop7 protein of Toxoplasma gondii] | produced overall less IL-2, TNFα and IFNγ; also recorded: secreted significantly fewer cytokines compared with Rop7-I and -III CD8 T cells | able to proliferate upon antigenic stimulation in a dose-dependent manner | able to proliferate upon antigenic stimulation in a dose-dependent manner | bound tetramers loaded with the nominal antigen (IPAAAGRFF), with little quantitative variation | bound tetramers loaded with the nominal antigen (IPAAAGRFF), with little quantitative variation | slightly less avid than binding to Rop7-I or -III | – | significantly increased tendency to cell death at a lower degree of stimulation; also recorded: an increased proportion of cells died as the strength of stimulus decreased | secreted increased amounts of IL-2 and IFNγ but not TNFα when compared with Rop7-I; also recorded: produced significantly more IL-2 and IFNγ, but not TNFα, compared with Rop7-I CD8 T cells | all Rop7 CD8 T cells were cytotoxic, albeit with subtle but notable differences | able to proliferate upon antigenic stimulation in a dose-dependent manner

Source: PMC5133449, “Peripheral self-reactivity regulates antigen-specific CD8 T-cell responses and cell division under physiological conditions” (Open Biology, 2016)
